Reference: US20040086553A1, “Foods and beverages for whitening and orally administered whitening agents” (The Nisshin OilliO, Ltd., priority 2000, published 2004)
Like-named read-outs stand apart in the source and are kept apart here.

Tests used:
[1] = system: deposition of melanin pigment on the skin induced by the UV light irradiation; experiment: Animal test for the confirmation of whitening effect (UV-induced skin pigmentation, test feed); type: in vivo, Brown guinea pigs; conditions: 4 weeks; for Evaluation Results CI: number of 7 animals ranked Conspicuous Imp.; for Evaluation Results MI: number of 7 animals ranked Medium Imp.; for Evaluation Results NC: number of 7 animals ranked No Change; for Evaluation Results SI: number of 7 animals ranked Slight Imp.
Description: More specifically, the whitening effect can be evaluated by removing a half of the hair on the back of each brown guinea pig, keeping these animals over 2 weeks while irradiating the hair-removed area with a UV lamp, dividing these guinea pigs into groups in such a manner that there is not any difference in the degree of the melanin pigmentation induced by the UN light irradiation, allowing the animals in each group to freely take a test food comprising a feed having a low vitamin C content to which a variety of triterpenes have been added and keeping these animals over additional 4 weeks to evaluate the degree of skin pigmentation while comparing the same with those observed for a control group and for a positive control group.
Brown guinea pigs (5-week-old male animals) were preliminarily kept for one week using a commercially available feed (CG-7 available from Nippon Kurea Company), a half of the hair on the back was removed and the hair-removed portion on the back was irradiated with light rays emitted from a UV lamp of 1.2 mW for 5 minutes on the 1st day and then with light rays emitted from a UV lamp of 1.0 mW for 5 minutes on the 2nd and 3rd days. Subsequently, these animals were kept over 2 weeks using a feed having a low vitamin C content (200.0 mg/kg feed), these guinea pigs were divided into 12 groups (comprising 7 animals each) in such a manner that there was not observed any difference in the degree of deposition of melanin pigment on the skin induced by the UV light irradiation between groups and then the animals were allowed to freely ingest each test feed comprising the feed having a low vitamin C content to which each triterpene had been added in an amount specified in the following Table 2. In this respect, however, the vitamin C-deficient feed per se was supplied to the control group and a vitamin C-supplemented feed was supplied to the positive control group. After 4 weeks from the supply of the test feed, the degree of the pigmentation of the skin was evaluated according to the following criteria.

B-16 melanoma cells = experiment: Evaluation of melanin production-inhibitory function (degree of whiteness of cultured cells); type: cell-based; conditions: for melanin production-inhibitory function relative to that observed for the positive control/standard: compared with 450 ppm of vitamin C-magnesium phosphate; on Evaluation of Melanin Production-Inhibition (degree of whiteness of cells): key: ++: The degree of whiteness is higher than that observed for the positive control; +: The degree of whiteness is almost identical to that of the positive control; ±: The degree of whiteness is not higher than that observed for the positive control, but higher than that observed for control; −: The degree of whiteness is almost identical to that observed for the control
Description: The melanin production-inhibitory function of the 5-membered ring-containing triterpenes incorporated into the foods or beverages and orally administered whitening agents of the present invention can be determined by a test method, which makes use of cultured melanocytes. The term “melanocyte(s)” used herein means cells having an ability of producing melanin and when cultivating these cells in the usual manner, the cells are blackened due to the accumulation of melanin pigment thus produced. Contrary to this, if a substance having such a melanin production-inhibitory function is incorporated into this cultivation system, the melanin production is suppressed and the skin is relatively whitened. The melanin production-inhibitory function can likewise be evaluated on the basis of this degree of relative whitening.
A culture medium (2 mL/well) was dispensed to a 6-well plate, a predetermined amount of B-16 melanoma cells was inoculated into the culture medium in each well and the cells were cultured at 37° C. and 5% CO2 by allowing the culture medium to stand. On the next day, a solution of test sample (each 5-membered ring-containing triterpene to be evaluated) having a predetermined concentration was added to and mixed with the culture medium and the cultivation was continued. On the 5th day from the initiation of the cultivation, the culture medium was exchanged and the test sample solution was again added to each well. On the next day, the culture medium was removed from each well to thus recover the cells, followed by washing the cells with PBS (phosphate-buffered physiological saline) and evaluation of the desired function based on the degree of whiteness of the cells. In this connection, the melanin production-inhibitory effect was evaluated by comparing the resulting degree of whiteness with that observed when 450 ppm of vitamin C-magnesium phosphate having a known effect was added instead of the test sample solution (positive control) and that observed when any test sample was not added (control) according to the following criteria.
The evaluation criteria for the degree of whiteness of cells are as follows: […]

[2] = 500.0 mg/kg feed, free ingestion
[3] = Concentration 2 ppm, rank vs 450 ppm vitamin C-magnesium phosphate
[4] = Concentration 6 ppm, rank vs 450 ppm vitamin C-magnesium phosphate
[5] = Concentration 10 ppm, rank vs 450 ppm vitamin C-magnesium phosphate
[6] = Concentration 25 ppm, rank vs 450 ppm vitamin C-magnesium phosphate
[7] = Concentration 50 ppm, rank vs 450 ppm vitamin C-magnesium phosphate
[8] = positive control group, 2500.0 mg/kg feed
[9] = Concentration 4 ppm, rank vs 450 ppm vitamin C-magnesium phosphate
[10] = Concentration 8 ppm, rank vs 450 ppm vitamin C-magnesium phosphate
[11] = Concentration 15 ppm, rank vs 450 ppm vitamin C-magnesium phosphate

| Compound | Evaluation of Melanin Production-Inhibition (degree of whiteness of cells) (B-16 melanoma cells; [3]) | Evaluation of Melanin Production-Inhibition (degree of whiteness of cells) (B-16 melanoma cells; [4]) | Evaluation of Melanin Production-Inhibition (degree of whiteness of cells) (B-16 melanoma cells; [5]) | Evaluation of Melanin Production-Inhibition (degree of whiteness of cells) (B-16 melanoma cells; [6]) | Evaluation of Melanin Production-Inhibition (degree of whiteness of cells) (B-16 melanoma cells; [7]) | melanin production-inhibitory function relative to that observed for the positive control/standard (B-16 melanoma cells) | other results |
| --- | --- | --- | --- | --- | --- | --- | --- |
| CC1(C)CC[C@]2(CO)CC[C@]3(C)C(=CC[C@@H]4[C@@]5(C)CC[C@H](O)C(C)(C)[C@@H]5CC[C@]43C)[C@@H]2C1 [Erythrodiol] | ± | ± | ± | + | + | about 20 times | Evaluation Results CI [1, 2]: 2; Evaluation Results MI [1, 2]: 2; Evaluation Results NC [1, 2]: 1; Evaluation Results SI [1, 2]: 2 |
| O=C1O[C@H]([C@@H](O)CO)C(O)=C1O [L-Ascorbic acid, reference compound] |  |  |  |  |  |  | Evaluation Results CI [1, 8]: 0; Evaluation Results MI [1, 8]: 1; Evaluation Results NC [1, 8]: 2; Evaluation Results SI [1, 8]: 4 |
| C=C(C)[C@@H]1CC[C@]2(C(=O)O)CC[C@]3(C)[C@H](CC[C@@H]4[C@@]5(C)CC[C@H](O)C(C)(C)[C@@H]5CC[C@]43C)[C@@H]12 [Betulinic acid] | − | ± | + |  |  | about 20 times | Evaluation Results CI [1, 2]: 2; Evaluation Results MI [1, 2]: 4; Evaluation Results NC [1, 2]: 0; Evaluation Results SI [1, 2]: 1 |
| CCOC(=O)[C@]12CCC(C)(C)C[C@H]1C1=CC[C@@H]3[C@@]4(C)C[C@@H](O)[C@H](O)C(C)(C)[C@@H]4CC[C@@]3(C)[C@]1(C)CC2 [Compound of Synthetic Example 1, Ethyl Maslinate] | ± | ++ | ++ |  |  | about 110 times | Evaluation Results CI [1, 2]: 2; Evaluation Results MI [1, 2]: 3; Evaluation Results NC [1, 2]: 1; Evaluation Results SI [1, 2]: 1; Evaluation of Melanin Production-Inhibition (degree of whiteness of cells) (B-16 melanoma cells; [9]): +; Evaluation of Melanin Production-Inhibition (degree of whiteness of cells) (B-16 melanoma cells; [10]): ++ |
| C=C(C)[C@@H]1CC[C@]2(C(=O)OCC)CC[C@]3(C)[C@H](CC[C@@H]4[C@@]5(C)CC[C@H](O)C(C)(C)[C@@H]5CC[C@]43C)[C@@H]12 [Compound of Synthetic Example 8, Betulinic Acid Ethyl Ester] | − | ± | ± | + | + | about 20 times |  |
| CC1(C)CC[C@]2(C(=O)O)CC[C@]3(C)C(=CC[C@@H]4[C@@]5(C)C[C@@H](O)[C@H](O)C(C)(C)[C@@H]5CC[C@]43C)[C@@H]2C1 [Purified maslinic acid 3, maslinic acid] |  |  |  |  |  |  | Evaluation of Melanin Production-Inhibition (degree of whiteness of cells) (B-16 melanoma cells): ± and + and ++ |
| CC(=O)OC[C@]12CC[C@@H](C)[C@H](C)[C@H]1C1=CC[C@@H]3[C@@]4(C)CC[C@H](OC(C)=O)C(C)(C)[C@@H]4CC[C@@]3(C)[C@]1(C)CC2 [Compound of Synthetic Example 7, 3,28-O-di-Acetyl-Uvaol] | − | − | ± | + | + | about 20 times |  |
| 2,3-O-di-Triethylsilyl-Maslinic Acid Triethylsilyl Ester [Compound of Synthetic Example 3] | − | ± | + | + | + | about 40 times |  |
| CC(=O)OCC12CCC(C)(C)CC1C1=CCC3C4(C)CCC(OC(C)=O)C(C)(C)C4CCC3(C)C1(C)CC2 (stereo not drawn) [Compound of Synthetic Example 5, 3,28-O-di-Acetyl-Erythrodiol] | − | ± | ± | + | + | about 20 times |  |
| C=C(C)[C@@H]1CC[C@]2(COC(C)=O)CC[C@]3(C)[C@H](CC[C@@H]4[C@@]5(C)CC[C@H](OC(C)=O)C(C)(C)[C@@H]5CC[C@]43C)[C@@H]12 [Compound of Synthetic Example 9, 3,28-O-di-Acetyl-Betulin] | − | − | ± | ± | + | about 10 times |  |
| CCOC(=O)[C@]12CC[C@@H](C)[C@H](C)[C@H]1C1=CC[C@@H]3[C@@]4(C)CC[C@H](O)C(C)(C)[C@@H]4CC[C@@]3(C)[C@]1(C)CC2 [Compound of Synthetic Example 6, Ursolic Acid Ethyl Ester] | ± | ++ | ++ |  |  | about 110 times | Evaluation of Melanin Production-Inhibition (degree of whiteness of cells) (B-16 melanoma cells; [9]): +; Evaluation of Melanin Production-Inhibition (degree of whiteness of cells) (B-16 melanoma cells; [10]): ++ |
| 2,3-O-di-Stearoyl-Maslinic Acid Ethyl Ester [Compound of Synthetic Example 4] | ± | + | ++ |  |  | about 75 times | Evaluation of Melanin Production-Inhibition (degree of whiteness of cells) (B-16 melanoma cells; [9]): ±; Evaluation of Melanin Production-Inhibition (degree of whiteness of cells) (B-16 melanoma cells; [10]): ++; Evaluation of Melanin Production-Inhibition (degree of whiteness of cells) (B-16 melanoma cells; [11]): ++ |
| O=c1cc(CO)occ1O [Kojic acid, reference compound] |  |  | − | − | ± |  | Evaluation of Melanin Production-Inhibition (degree of whiteness of cells) (B-16 melanoma cells; [11]): −; Evaluation of Melanin Production-Inhibition (degree of whiteness of cells) (B-16 melanoma cells; Concentration 100 ppm, rank vs 450 ppm vitamin C-magnesium phosphate): ±; Evaluation of Melanin Production-Inhibition (degree of whiteness of cells) (B-16 melanoma cells; Concentration 200 ppm, rank vs 450 ppm vitamin C-magnesium phosphate): +; Evaluation of Melanin Production-Inhibition (degree of whiteness of cells) (B-16 melanoma cells; Concentration 300 ppm, rank vs 450 ppm vitamin C-magnesium phosphate): ++; Evaluation of Melanin Production-Inhibition (degree of whiteness of cells) (B-16 melanoma cells; Concentration 450 ppm, rank vs 450 ppm vitamin C-magnesium phosphate): ++ |
